Reference: patent US20240150377A1, “MODULATORS OF CYSTIC FIBROSIS TRANSMEMBRANE CONDUCTANCE REGULATOR” (VERTEX PHARMACEUTICALS INCORPORATED, priority 2020, published 2024)
pEC50: −log10 of the molar value. Like-named read-outs stand apart in the source and are kept apart here.

Target: T1, CFTR (Homo sapiens, UniProt P13569, DEL508-508)
T1 construct: endogenous in cells; host or cells: primary human bronchial epithelial cells from CF subjects (F508del/MF-HBE), differentiated at air-liquid interface
Assay: HBE assay: Ussing chamber assay of CFTR-mediated short-circuit currents
Assay type: cell-based
Conditions: Table 12; for activation at 10 µM: read-out: HBE Activity at 10 μM (%); for pEC50: read-out: HBE EC50; for Emax: read-out: HBE Max Activity (%); for EC50: HBE EC50 (μM)
Outline: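 CFTR-mediated Isc (μA/cm²) equals the peak response to apical 20 μM forskolin minus the residual after a 20 μM each BPO/GlyH-101/CFTR inhibitor 172 cocktail, recorded in Ussing chambers at Vhold 0 mV, 37 °C, pH 7.4, with 30 μM apical amiloride. Cells were F508del/MF HBE cultures preincubated 18-24 h with corrector (concentration range or 10 μM) plus 1 μM ivacaftor in 20% human serum.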

T1 sequence (P13569 with tags, fused parts or gaps DEL508-508): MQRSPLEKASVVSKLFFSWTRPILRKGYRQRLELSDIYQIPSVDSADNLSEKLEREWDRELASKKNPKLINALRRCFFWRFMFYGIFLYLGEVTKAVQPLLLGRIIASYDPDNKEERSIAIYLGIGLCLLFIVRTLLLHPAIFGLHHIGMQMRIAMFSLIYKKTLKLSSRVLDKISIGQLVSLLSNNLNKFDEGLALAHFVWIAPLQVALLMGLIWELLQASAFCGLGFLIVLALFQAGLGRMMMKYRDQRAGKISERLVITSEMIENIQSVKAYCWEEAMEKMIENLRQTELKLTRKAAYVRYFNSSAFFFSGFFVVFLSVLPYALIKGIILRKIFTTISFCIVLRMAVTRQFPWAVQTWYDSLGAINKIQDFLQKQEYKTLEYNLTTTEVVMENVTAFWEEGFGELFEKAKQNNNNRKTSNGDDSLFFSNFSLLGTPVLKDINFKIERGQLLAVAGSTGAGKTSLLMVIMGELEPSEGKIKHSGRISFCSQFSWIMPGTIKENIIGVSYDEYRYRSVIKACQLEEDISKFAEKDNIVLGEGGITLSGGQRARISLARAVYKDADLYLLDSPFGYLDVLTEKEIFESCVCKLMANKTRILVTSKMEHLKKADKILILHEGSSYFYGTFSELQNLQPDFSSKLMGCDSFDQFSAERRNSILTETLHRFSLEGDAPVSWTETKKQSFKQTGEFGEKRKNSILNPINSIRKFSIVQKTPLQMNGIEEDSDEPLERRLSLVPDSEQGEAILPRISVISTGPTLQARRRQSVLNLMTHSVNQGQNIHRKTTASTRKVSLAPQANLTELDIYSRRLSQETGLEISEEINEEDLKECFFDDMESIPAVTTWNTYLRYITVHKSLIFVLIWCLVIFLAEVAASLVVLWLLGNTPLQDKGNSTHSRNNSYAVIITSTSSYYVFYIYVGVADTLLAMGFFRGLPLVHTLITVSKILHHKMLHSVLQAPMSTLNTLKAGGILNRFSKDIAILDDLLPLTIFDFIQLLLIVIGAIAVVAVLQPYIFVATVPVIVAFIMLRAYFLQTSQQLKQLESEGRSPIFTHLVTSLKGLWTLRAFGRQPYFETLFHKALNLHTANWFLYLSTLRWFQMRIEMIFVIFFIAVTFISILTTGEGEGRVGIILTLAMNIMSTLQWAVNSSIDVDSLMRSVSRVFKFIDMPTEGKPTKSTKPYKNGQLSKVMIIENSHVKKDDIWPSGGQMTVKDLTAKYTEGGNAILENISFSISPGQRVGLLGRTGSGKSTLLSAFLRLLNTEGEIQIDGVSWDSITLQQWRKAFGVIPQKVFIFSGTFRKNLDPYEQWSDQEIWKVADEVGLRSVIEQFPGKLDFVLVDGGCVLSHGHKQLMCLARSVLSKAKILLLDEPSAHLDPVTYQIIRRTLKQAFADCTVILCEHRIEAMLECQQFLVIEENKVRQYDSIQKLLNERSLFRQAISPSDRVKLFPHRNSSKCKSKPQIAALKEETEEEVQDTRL

SMILES | activation at 10 µM [%] | pEC50 | Emax [%] | EC50 [µM]
COc1cccc(C)c1-c1cc2nc(n1)NS(=O)(=O)c1cccc(c1)C(=O)N(Cc1cncc(N(C)CC(C)(C)C)n1)[C@H](CC(C)(C)C)CO2 [Compound 544] | > 600 |  |  | 
Cc1cccc(C)c1-c1cc2nc(n1)NS(=O)(=O)c1cccc(c1)C(=O)N(Cc1ncc(N3CC4CC3CO4)cn1)[C@H](CC(C)(C)C)CO2 (some centres unmarked) [Compound 545] |  | > 6.00 | > 60 | 
Cc1cccc(C)c1-c1cc2nc(n1)NS(=O)(=O)c1cccc(c1)C(=O)N(Cc1ncc(N3CC4CC3CO4)cn1)[C@H](CC(C)(C)C)CO2 (some centres unmarked) [Compound 546] |  | > 6.00 |  | 
Cc1cccc(C)c1-c1cc2nc(n1)NS(=O)(=O)c1cccc(c1)C(=O)N(Cc1cccc(N3CCCC3C(C)C)n1)[C@H](CC(C)(C)C)CO2 (some centres unmarked) [Compound 547] |  | > 6.00 | > 60 | 
Cc1cccc(C)c1-c1cc2nc(n1)NS(=O)(=O)c1cccc(c1)C(=O)N(Cc1cccc(N3CCCC3C(C)C)n1)[C@H](CC(C)(C)C)CO2 (some centres unmarked) [Compound 548] |  | > 6.00 |  | 
Cc1cccc(C)c1-c1cc2nc(n1)NS(=O)(=O)c1cccc(c1)C(=O)N(Cc1cccc(N3CCCC3C(F)(F)F)n1)[C@H](CC(C)(C)C)CO2 (some centres unmarked) [Compound 549] | > 600 |  |  | 
Cc1cccc(C)c1-c1cc2nc(n1)NS(=O)(=O)c1cccc(c1)C(=O)N(Cc1cncc(N(C)CC(C)(C)C)n1)[C@H](CC(C)C)CO2 [Compound 551] |  | > 6.00 | > 60 | 
Cc1cccc(C)c1-c1cc2nc(n1)NS(=O)(=O)c1cccc(c1)C(=O)N(Cc1nccc(N(C)C(C)C)n1)[C@H](CC(C)C)CO2 [Compound 552] | > 600 |  |  | 
Cc1cccc(C)c1-c1cc2nc(n1)NS(=O)(=O)c1cccc(c1)C(=O)N(Cc1ncc(N3CCC(C)(O)C3)cn1)[C@H](CC(C)(C)C)CO2 (some centres unmarked) [Compound 553] | > 600 |  |  | 
Cc1cccc(C)c1-c1cc2nc(n1)NS(=O)(=O)c1cccc(c1)C(=O)N(Cc1ncc(N3C4CCC3CC4)cn1)[C@H](CC(C)(C)C)CO2 [Compound 554] |  |  | > 60 | < 1
CC(C)=C(C)c1ccnc(CN2C(=O)c3cccc(c3)S(=O)(=O)Nc3nc(cc(-c4c(C)cccc4C)n3)OC[C@H]2CC(C)(C)C)n1 [Compound 555] | > 600 |  |  | 
Cc1cccc(C)c1-c1cc2nc(n1)NS(=O)(=O)c1cccc(c1)C(=O)N(Cc1ncc(OC3CCOCC3)cn1)[C@H](CC(C)(C)C)CO2 [Compound 556] |  | > 6.00 | > 60 | 
Cc1cccc(C)c1-c1cc2nc(n1)NS(=O)(=O)c1cccc(c1)C(=O)N(Cc1ncc(OC(=O)OC(C)(C)C)cn1)[C@H](CC(C)(C)C)CO2 [Compound 557] | > 600 |  |  | 
Cc1cccc(C)c1-c1cc2nc(n1)NS(=O)(=O)c1cccc(c1)C(=O)N(Cc1ncc(OC3CCC3)cn1)[C@H](CC(C)(C)C)CO2 [Compound 558] |  | > 6.00 | > 60 | 
Cc1cccc(C)c1-c1cc2nc(n1)NS(=O)(=O)c1cccc(c1)C(=O)N(Cc1ncc(OCCOC(C)C)cn1)[C@H](CC(C)(C)C)CO2 [Compound 559] |  | > 6.00 | > 60 | 
Cc1cccc(C)c1-c1cc2nc(n1)NS(=O)(=O)c1cccc(c1)C(=O)N(Cc1ncc(OC3CC4(CC4)C3)cn1)[C@H](CC(C)(C)C)CO2 [Compound 560] |  | > 6.00 | > 60 | 
Cc1cccc(C)c1-c1cc2nc(n1)NS(=O)(=O)c1cccc(c1)C(=O)N(Cc1ncc(OC3CCCCC3)cn1)[C@H](CC(C)(C)C)CO2 [Compound 561] | > 600 | > 6.00 | > 60 | 
Cc1cccc(C)c1-c1cc2nc(n1)NS(=O)(=O)c1cccc(c1)C(=O)N(Cc1cccc(N3CCCC34CCC4)n1)[C@H](CC(C)(C)C)CO2 [Compound 562] |  | > 6.00 | > 60 | 
Cc1cccc(C)c1-c1cc2nc(n1)NS(=O)(=O)c1cccc(c1)C(=O)N(Cc1ncc(N3C4CCC3COC4)cn1)[C@H](CC(C)(C)C)CO2 [Compound 563] |  |  | > 60 | < 1
COCCN(c1cccc(CN2C(=O)c3cccc(c3)S(=O)(=O)Nc3nc(cc(-c4c(C)cccc4C)n3)OC[C@H]2CC(C)(C)C)n1)C(C)C [Compound 564] |  | > 6.00 | > 60 | 
Cc1cccc(C)c1-c1cc2nc(n1)NS(=O)(=O)c1cccc(c1)C(=O)N(Cc1cccc(N3CCC34CCCC4)n1)[C@H](CC(C)(C)C)CO2 [Compound 565] |  | > 6.00 | > 60 | 
Cc1cccc(C)c1-c1cc2nc(n1)NS(=O)(=O)c1cccc(c1)C(=O)N(Cc1ncc(OC3CCCC3)cn1)[C@H](CC(C)(C)C)CO2 [Compound 566] |  | > 6.00 | > 60 | 
Cc1cccc(C)c1-c1cc2nc(n1)NS(=O)(=O)c1cccc(c1)C(=O)N(Cc1ncc(OCC(C)(C)C)cn1)[C@H](CC(C)(C)C)CO2 [Compound 567] |  | > 6.00 | > 60 | 
Cc1cccc(C)c1-c1cc2nc(n1)NS(=O)(=O)c1cccc(c1)C(=O)N(Cc1ncc(N3CCC(OC(C)C)CC3)cn1)[C@H](CC(C)(C)C)CO2 [Compound 568] |  | > 6.00 | > 60 | 

SMILES | activation at 10 µM [%] | pEC50 | Emax [%] | EC50 [µM]
Cc1cccc(C)c1-c1cc2nc(n1)NS(=O)(=O)c1cccc(c1)C(=O)N(Cc1ncc(N3CCC[C@@H]3C)cn1)[C@H](CC(C)(C)C)CO2 [Compound 569] |  | > 6.00 | > 60 | 
COC[C@H]1CCCN1c1cnc(CN2C(=O)c3cccc(c3)S(=O)(=O)Nc3nc(cc(-c4c(C)cccc4C)n3)OC[C@H]2CC(C)(C)C)nc1 [Compound 570] |  | > 6.00 | > 60 | 
COC[C@@H]1CCCN1c1cnc(CN2C(=O)c3cccc(c3)S(=O)(=O)Nc3nc(cc(-c4c(C)cccc4C)n3)OC[C@H]2CC(C)(C)C)nc1 [Compound 571] |  | > 6.00 | > 60 | 
Cc1cccc(C)c1-c1cc2nc(n1)NS(=O)(=O)c1cccc(c1)C(=O)N(Cc1ncc(N3CCC[C@H]3C)cn1)[C@H](CC(C)(C)C)CO2 [Compound 572] |  | > 6.00 | > 60 | 
Cc1cccc(C)c1-c1cc2nc(n1)NS(=O)(=O)c1cccc(c1)C(=O)N(Cc1cccc(N3CCC[C@H]3C)n1)[C@H](CC(C)C)CO2 [Compound 573] |  | > 6.00 | > 60 | 
Cc1cccc(C)c1-c1cc2nc(n1)NS(=O)(=O)c1cccc(c1)C(=O)N(Cc1ncc(CC(C)C)cn1)[C@H](CC(C)C)CO2 [Compound 574] |  | > 6.00 | > 60 | 
Cc1cccc(C)c1-c1cc2nc(n1)NS(=O)(=O)c1cccc(c1)C(=O)N(Cc1ncc(N(C)C3CC4(CC4)C3)cn1)[C@H](CC(C)(C)C)CO2 [Compound 575] |  | > 6.00 | > 60 | 
COc1cccc(C)c1-c1cc2nc(n1)NS(=O)(=O)c1cccc(c1)C(=O)N(Cc1ncc(CC(C)C)cn1)[C@H](CC(C)(C)C)CO2 [Compound 576] | > 600 |  |  | 
CC(C)=C(C)c1cccc(CN2C(=O)c3cccc(c3)S(=O)(=O)Nc3nc(cc(-c4c(C)cccc4C)n3)OC[C@H]2CC(C)(C)C)n1 [Compound 577] | > 600 |  |  | 
COc1cccc(C)c1-c1cc2nc(n1)NS(=O)(=O)c1cccc(c1)C(=O)N(Cc1cccc(N3CCCC3C)n1)[C@H](CC(C)(C)C)CO2 (some centres unmarked) [Compound 578] | < 30 |  |  | 
COc1cccc(C)c1-c1cc2nc(n1)NS(=O)(=O)c1cccc(c1)C(=O)N(Cc1ncc(N3CCC(C)(C)C3)cn1)[C@H](CC(C)(C)C)CO2 [Compound 579] |  | > 6.00 | > 60 | 
Cc1cccc(C)c1-c1cc2nc(n1)NS(=O)(=O)c1cccc(c1)C(=O)N(Cc1ncc(N3CCC4(COC4)C3)cn1)[C@H](CC(C)(C)C)CO2 [Compound 580] |  | > 6.00 | > 60 | 
Cc1cccc(C)c1-c1cc2nc(n1)NS(=O)(=O)c1cccc(c1)C(=O)N(Cc1cccc(N(C)C3CC4(CC4)C3)n1)[C@H](CC(C)(C)C)CO2 [Compound 581] |  | > 6.00 | > 60 | 
Cc1cccc(C)c1-c1cc2nc(n1)NS(=O)(=O)c1cccc(c1)C(=O)N(Cc1cccc(CCC(C)(C)C)n1)[C@H](CC(C)(C)C)CO2 [Compound 582] |  | > 6.00 | > 60 | 
Cc1cccc(C)c1-c1cc2nc(n1)NS(=O)(=O)c1cccc(c1)C(=O)N(Cc1cccc(CC(C)C)n1)[C@H](CC(C)(C)C)CO2 [Compound 583] |  | > 6.00 | > 60 | 
Cc1cccc(C)c1-c1cc2nc(n1)NS(=O)(=O)c1cccc(c1)C(=O)N(Cc1ccnc(C(C)C)n1)[C@H](CC(C)(C)C)CO2 [Compound 584] |  | > 6.00 | > 60 | 
COC1(C)CN(c2cnc(CN3C(=O)c4cccc(c4)S(=O)(=O)Nc4nc(cc(-c5c(C)cccc5C)n4)OC[C@H]3CC(C)(C)C)nc2)C1 [Compound 585] |  | > 6.00 | > 60 | 
Cc1cccc(C)c1-c1cc2nc(n1)NS(=O)(=O)c1cccc(c1)C(=O)N(Cc1ncc(N3CC(C)(O)C3)cn1)[C@H](CC(C)(C)C)CO2 [Compound 586] |  | > 6.00 | > 60 | 
Cc1cccc(C)c1-c1cc2nc(n1)NS(=O)(=O)c1cccc(c1)C(=O)N(Cc1nccc(N3CCCC3(C)C)n1)[C@H](CC(C)(C)C)CO2 [Compound 587] |  | > 6.00 | > 60 | 
Cc1cccc(C)c1-c1cc2nc(n1)NS(=O)(=O)c1cccc(c1)C(=O)N(Cc1cccc(/C=C/C(C)(C)C)n1)[C@H](CC(C)(C)C)CO2 [Compound 588] |  | > 6.00 | > 60 | 
CC(C)=Cc1cccc(CN2C(=O)c3cccc(c3)S(=O)(=O)Nc3nc(cc(-c4c(C)cccc4C)n3)OC[C@H]2CC(C)(C)C)n1 [Compound 589] |  | > 6.00 | > 60 | 
Cc1cccc(C)c1-c1cc2nc(n1)NS(=O)(=O)c1cccc(c1)C(=O)N(Cc1cccc(-c3ncccn3)n1)[C@H](CC(C)(C)C)CO2 [Compound 590] |  | > 6.00 | > 60 | 
Cc1cccnc1-c1cccc(CN2C(=O)c3cccc(c3)S(=O)(=O)Nc3nc(cc(-c4c(C)cccc4C)n3)OC[C@H]2CC(C)(C)C)n1 [Compound 591] | > 600 |  |  | 
